Data published in PubChem BioAssay (NCI).
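1) Cells in 96-well plates. 2) Compound, 48 h, 5 concentrations. 3) Linear interpolation between surrounding doses. 4) Unreached endpoint = highest concentration. At the TGI there is no net growth.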

Columns and labels:
Test in all cases: growth of human tumour cells (NCI), 48 h
A498 renal = tested on: A498 renal
ACHN renal = tested on: ACHN renal
BT-549 breast = tested on: BT-549 breast
DU-145 prostate = tested on: DU-145 prostate
HOP-92 NSCLC = tested on: HOP-92 NSCLC
HS 578T breast = tested on: HS 578T breast
OVCAR-4 ovarian = tested on: OVCAR-4 ovarian
RPMI-8226 leukemia = tested on: RPMI-8226 leukemia
SK-MEL-2 melanoma = tested on: SK-MEL-2 melanoma
UACC-257 melanoma = tested on: UACC-257 melanoma
MALME-3M melanoma = tested on: MALME-3M melanoma
RXF 393 renal = tested on: RXF 393 renal

| Structure (SMILES) | TGI (A498 renal) [µM] | TGI (ACHN renal) [µM] | TGI (BT-549 breast) [µM] | TGI (DU-145 prostate) [µM] | TGI (HOP-92 NSCLC) [µM] | TGI (HS 578T breast) [µM] | TGI (OVCAR-4 ovarian) [µM] | TGI (RPMI-8226 leukemia) [µM] | TGI (SK-MEL-2 melanoma) [µM] | TGI (UACC-257 melanoma) [µM] | TGI (MALME-3M melanoma) [µM] | TGI (RXF 393 renal) [µM] |
| --- | --- | --- | --- | --- | --- | --- | --- | --- | --- | --- | --- | --- |
| O=C(O)Cc1ccc(Oc2nc3ccccc3nc2C(=O)O)cc1 | > 100 | > 100 | > 100 | > 100 | > 100 | > 100 | > 100 | > 100 | > 100 | > 100 | – | – |
| COc1cc(NC(C)=O)ccc1C(=O)NN1C(=O)C(Cl)C1c1ccco1 (stereo not given) | > 100 | > 100 | > 100 | > 100 | > 100 | – | > 100 | > 100 | > 100 | – | > 100 | > 100 |
| COc1ccc2c(c1)/C(=C\c1c(C)nc3sc(C)cn13)C(=O)N2 | 5.42 | > 100 | 45.8 | > 46.1 | > 28.5 | 10.3 | > 100 | > 64.8 | > 28.3 | > 78.2 | > 100 | – |
| O=C(O)CS | – | – | – | – | > 100 | – | > 100 | > 100 | > 100 | > 100 | > 100 | > 100 |
| Cc1c2c(n(CCc3ccccc3)c1C)N(C)N=C(C#N)S2(=O)=O | – | > 100 | > 100 | > 100 | – | – | > 100 | > 100 | > 100 | > 100 | – | > 100 |
| CC1(C)OB(O)OC1(C)C | > 100 | > 100 | – | – | – | – | > 100 | > 100 | > 100 | > 100 | > 100 | > 100 |
| C=C1C(=O)OC2/C=C(/C)C3CC(O)C(C)(CC(OC(=O)/C(C)=C/C)C12)O3 (stereo not given) | 23.2 | 6.71 | – | – | 8.68 | – | 20.6 | > 22.4 | 7.34 | 17.6 | 4.48 | 3.49 |
| Cn1c(-c2cccs2)cc(-c2cccs2)c1-c1ccco1 | > 79.2 | > 100 | > 100 | > 100 | > 100 | > 91.7 | 5.07 | > 100 | > 100 | > 100 | – | > 82.7 |
| CC(C)CCC[C@@H](C)C1CCC2[C@@H]3CC=C4C[C@@H](C(=O)NCC[N+](C)(C)CCCS(=O)(=O)[O-])CC[C@]4(C)C3CC[C@@]21C (stereo not given in full) | – | 32.5 | – | – | – | – | 35.9 | 41.5 | 32.4 | 34.8 | 33.3 | 36.5 |
| Cc1ccc(S(=O)(=O)N2C[C@](O)(c3ccccc3)[C@H]2C)cc1 | > 100 | > 100 | – | > 100 | > 100 | > 100 | > 100 | – | > 100 | > 100 | > 100 | > 100 |
| CCOC(=O)Cc1csc2[n+]1C(=O)/C(=C\c1cccc(Cl)c1Cl)S2 | – | 45.5 | 49 | 46.3 | 26.8 | 89.7 | 42.3 | – | 36.7 | 90.1 | – | 40.4 |
| CCN(CC)CCCC(C)Nc1ccnc2ccc3nn(C)nc3c12 (stereo not given) | > 100 | > 100 | – | – | – | – | – | > 100 | – | > 100 | > 100 | – |
| OC[C@]1(n2nc3ccccc3n2)OC[C@@H]1c1ccccc1 | > 100 | > 100 | 99.5 | > 100 | > 100 | > 100 | 70.7 | 97.4 | > 100 | > 100 | > 100 | – |
| O=C(NNC(c1ccccc1)C(F)(F)F)c1ccncc1 (stereo not given) | – | > 100 | > 100 | > 100 | > 100 | – | > 100 | > 100 | > 100 | > 100 | > 100 | – |
| [N-]=[N+]=Nc1c(C=O)c(=O)n(-c2ccccc2)c2ccccc12 | 10.1 | 40.7 | > 100 | > 100 | 31.1 | 79.1 | 37.4 | – | 80.5 | 50.1 | 45.3 | 27.2 |
| CC1=C(C(=O)Nc2cc(=O)n(C)c(=O)n2C)C(c2ccc([N+](=O)[O-])cc2)C(C(=O)Nc2cc(=O)n(C)c(=O)n2C)=C(C)N1 | > 100 | > 100 | – | – | 85.7 | – | > 100 | > 100 | > 100 | > 100 | > 100 | > 100 |
| CCOC(=O)Cc1csc2[n+]1C(=O)/C(=C/c1cccc(OC)c1O)S2 | – | > 100 | 48.9 | > 100 | > 100 | – | > 100 | – | > 100 | > 100 | – | – |
| NC(=O)NC(=O)c1cccc(CNc2ccc(C(=O)N[C@@H](CCC(=O)O)C(=O)O)cc2)n1 | – | > 100 | > 100 | > 100 | > 100 | > 100 | > 100 | > 100 | > 100 | > 100 | – | – |
| O=C(Nc1cc2c(=O)oc3ccccc3c2oc1=O)c1cccnc1 | – | > 100 | > 100 | > 100 | > 100 | – | > 100 | – | > 100 | > 100 | > 100 | > 100 |
| CCN(CC)CCCn1c(=O)c2ccccc2n2c3c(=O)n(C)c(=O)n(C)c3nc12 | – | 4.17 | 17.6 | 10.6 | 16.4 | 45.6 | 22.6 | 49.7 | 35 | 26.2 | 21.4 | 45.8 |
| O=C(Cc1csc(-c2nc(CC(=O)NNc3ccccc3)cs2)n1)NNc1ccccc1 | > 100 | > 100 | – | – | > 100 | – | > 100 | > 100 | > 100 | > 100 | > 100 | > 100 |
| Cc1ccc2c(sc(-c3ccc4c(c3)sc(-c3ccc5c(c3)sc(-c3ccc(N(C)C)cc3)[n+]5C)[n+]4C)[n+]2C)c1S(=O)(=O)O (tested in a mixture with another compound) | > 100 | > 100 | > 100 | > 100 | > 100 | > 100 | > 100 | > 100 | > 100 | > 100 | – | – |
